Experimental findings from ChEMBL document CHEMBL3132849, “Bioactive prenylated phenyl derivatives derived from marine natural products: novel scaffolds for the design of BACE inhibitors” (Medchemcomm, 2014) are described below.

One may read the inhibition as how much of the control response was suppressed.

Data set [1] has as its system CHO. Kind of data set: Cytotoxicity in Cricetulus griseus CHO cells expressing human APP751 at 10 uM. Format: cell-based. Conditions: chinese hamster.
Data set [2] concerns the target Beta-secretase 1 (Homo sapiens) (UniProt P56817). Kind of data set: Inhibition of BACE1 (unknown origin) expressed in human APP751 transfected CHO-7W cells assessed as inhibition of amyloid-beta (1 to 40) peptide production at 1 uM after 24 hrs by Abeta40 human ELISA Kit. It counts as cell-based. In general terms: An ELISA detects its analyte on a solid surface through an enzyme-linked reagent.

For data set [3] the target is unchanged. Kind of data set: Inhibition of recombinant human BACE1 using fluorogenic peptide 4 as substrate at 10 uM by FRET assay.
Data set [4] shares this target. Nature of the data set: Inhibition of recombinant human BACE1 using fluorogenic peptide 4 as substrate at 1 uM by FRET assay.
Data set [5] has the same target. Nature of the data set: Inhibition of BACE1 (unknown origin) expressed in human APP751 transfected CHO-7W cells assessed as inhibition of amyloid-beta (1 to 40) peptide production at 10 uM after 24 hrs by Abeta40 human ELISA Kit. It counts as cell-based.
For data set [6] the target is unchanged. Kind of data set: Inhibition of recombinant human BACE1 assessed as fluorescence at 10 uM using FRET ASSAY KIT.
For data set [7] the target is unchanged. Nature of the data set: Inhibition of recombinant human BACE1 assessed as fluorescence at 1 uM using FRET ASSAY KIT.
Data set [8] has the same target. The note with it: CHO-7W, 3 uM.
Description: Inhibition of BACE1 in human APP751 transfected CHO-7W cells assessed as inhibition of amyloid-beta (1 to 40) peptide production at 3 uM after 24 hrs by Abeta40 human ELISA Kit
Data set [9] is described as follows: Cytotoxicity in human SH-SY5Y cells at 1 to 10 uM. Format: cell-based.

SMILES strings stand for the structures. Values joined by “and” are separate entries in the source; they are usually repeats but may differ in a detail not shown here. Equal entries are not always repeated. Starred links: 1 amine or outer side, 2 acyl side, 3 side chain; linkers in the order of their positions; H or OH if unused. Non-standard residues stand in square brackets, D forms with d. Residues, ends and D or L forms follow the SMILES beside them. LeuΨ(S-CHOHCH2)Ala = CC(C)C[C@H](N[*:1])[C@@H](O)C[C@@H](C)C(=O)[*:2]

Chain of Beta-secretase 1 (Homo sapiens) (P56817 whole entry): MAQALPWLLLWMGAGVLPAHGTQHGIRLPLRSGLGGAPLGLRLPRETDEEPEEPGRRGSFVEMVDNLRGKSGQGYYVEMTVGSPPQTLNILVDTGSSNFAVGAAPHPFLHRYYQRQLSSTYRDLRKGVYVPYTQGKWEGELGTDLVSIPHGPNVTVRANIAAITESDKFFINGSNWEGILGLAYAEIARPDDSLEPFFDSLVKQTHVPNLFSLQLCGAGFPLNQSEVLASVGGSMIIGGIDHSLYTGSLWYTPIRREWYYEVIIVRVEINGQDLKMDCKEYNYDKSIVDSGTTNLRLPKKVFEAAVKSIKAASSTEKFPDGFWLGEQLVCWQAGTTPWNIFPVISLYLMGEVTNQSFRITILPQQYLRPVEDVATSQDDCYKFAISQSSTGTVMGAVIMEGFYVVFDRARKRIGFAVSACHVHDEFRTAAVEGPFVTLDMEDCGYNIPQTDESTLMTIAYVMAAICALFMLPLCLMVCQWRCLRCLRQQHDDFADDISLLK

Consider `COc1ccc(C(=O)O)cc1NC/C=C(\C)CC/C=C(\C)CCC=C(C)C`, for which, in [1], the Activity result was “Toxic”. The inhibition in data set [2] is 31%; in data set [3], 0%; in [4] it was 50%.
As for `CC(=O)Oc1ccc(C(=O)O)cc1C/C=C(\C)CC/C=C(\C)CC/C=C(\C)CCC=C(C)C`, in [1], the Activity entry was “Toxic”. In addition, the inhibition in [2] turned out to be 24%; in [3] it was 17%; in data set [4] it was 87%.
As to `CCOC(=O)COc1ccc(C(=O)OC)cc1N(C/C=C(\C)CC/C=C(\C)CCC=C(C)C)CC(=O)OCC`, the inhibition in data set [5] was 36%; in data set [2] it was 14%; in data set [3], 0%; in data set [4] it was 100%.
With `COC(=O)c1ccc(OC)c(NC[C@H](O)[C@@H](Cc2ccccc2)NC/C=C(\C)CCC=C(C)C)c1`, the Activity result in data set [1] is “Toxic”. Besides, the inhibition in data set [6] is 56%; in data set [7], 100%; in [2], 3%.
For `CC(C)C[C@H](NC(=O)[C@H](CC(N)=O)NC(=O)[C@@H](NC(=O)[C@@H](N)CCC(=O)O)C(C)C)[C@@H](O)C[C@@H](C)C(=O)N[C@@H](C)C(=O)N[C@@H](CCC(=O)O)C(=O)N[C@@H](Cc1ccccc1)C(=O)O` (H-EVN[LeuΨ(S-CHOHCH2)Ala]AEF-OH), the inhibition in [8] is 80%.
With `CC(C)=CCC/C(C)=C/CC/C(C)=C/CNc1cc(C(=O)O)ccc1O`, the inhibition came to 0% in data set [5], 36% in [3] and 100% in data set [4].
Consider `COC(=O)c1ccc2c(c1)N(C/C=C(\C)CC/C=C(\C)CCC=C(C)C)C(=O)CO2`, for which the inhibition in data set [5] was 29%; in data set [2], 0%; in [3], 22%; in data set [4] it was 59%.
For the compound `COc1ccccc1NC/C=C(\C)CC/C=C(\C)CCC=C(C)C`, the results for the inhibition in data set [5], in [3] and in [4] were 0%, 64% and 94%, respectively.
Turning to `CC(C)=CCC/C(C)=C/CC/C(C)=C/Cc1cc(C(=O)O)ccc1O`, the inhibition in [3] is 5%; in [4] it was 100%.
`CCCS(=O)(=O)Oc1ccc(C(=O)O)cc1NC/C=C(\C)CC/C=C(\C)CCC=C(C)C`: the inhibition in data set [5] was 36%; in data set [2] it was 14%; in data set [3], 3%; in data set [4], 93%.
In the case of `COC(=O)c1ccc(OC)c(NC/C=C(\C)CC/C=C(\C)CCC=C(C)C)c1`, the inhibition in data set [5] is 29%; in data set [2], 0%; in data set [3] it was 68%; in [4] it was 100%.
Take `COC(=O)c1ccnc(NC/C=C(\C)CC/C=C(\C)CCC=C(C)C)c1`: the inhibition amounted to 0% in data set [5], 70% in [3] and 100% in data set [4].
`CC(C)=CCC/C(C)=C/CC/C(C)=C/CNc1cccc(C(=O)O)c1`: in [9], the Activity entry is recorded as “Toxic”. For the same compound, the inhibition was determined as 25% in [3] and 89% in data set [4].
Regarding `CC(C)=CCC/C(C)=C/CC/C(C)=C/CN1C(=O)COc2ccc(C(=O)O)cc21`, the inhibition in data set [5] is 0%; in data set [2], 0%; in [3], 17%; in data set [4], 100%.
In the case of `CC(C)=CCC/C(C)=C/CC/C(C)=C/CC/C(C)=C/Cc1cc(C(=O)O)ccc1O`, the inhibition in [5] is 30% and 47%; in [2] it was 8% and 10%; in data set [3], 0%; in data set [4], 42% and 45%.
For `CCCOc1ccc(C(=O)OC)cc1NC/C=C(\C)CC/C=C(\C)CCC=C(C)C`, the inhibition in [5] came out at 0%; in data set [2] it was 0%; in data set [3], 27%; in data set [4], 88%.
Regarding `COc1ccc(C(=O)N[C@@H](Cc2ccccc2)[C@H](O)CNC2CC2)cc1NC/C=C(\C)CC/C=C(\C)CCC=C(C)C`, the inhibition in data set [6] was 34%; in data set [7], 63%; in data set [5] it was 28%; in data set [2], 10%.
